In ChEMBL document CHEMBL6127094, “Discovery of non-antiproliferative selective estrogen receptor degraders (SERDs) based on scaffold optimization of elacestrant” (Eur J Med Chem, 2024):
Calls of active or inactive are those of the source. The calls are words filed in the database; no cut-off is given here.

Tests used:
MCF7 [1] = experiment: Antiproliferative activity against human MCF7 cells assessed as reduction in cell viability at 5 to 100 uM incubated for 120 hrs by MTT assay relative to fulvestrant/elacestrant; type: functional, cell-based; settings: dose 5-100 µM
[2] = molecular target: T1, Estrogen receptor (Homo sapiens) (UniProt P03372); experiment: Induction of selective estrogen receptor degradation (SERD) in human MCF7 cells at 5 uM incubated for 24 hrs by Western blot analysis; type: cell-based
T1 sequence (whole entry): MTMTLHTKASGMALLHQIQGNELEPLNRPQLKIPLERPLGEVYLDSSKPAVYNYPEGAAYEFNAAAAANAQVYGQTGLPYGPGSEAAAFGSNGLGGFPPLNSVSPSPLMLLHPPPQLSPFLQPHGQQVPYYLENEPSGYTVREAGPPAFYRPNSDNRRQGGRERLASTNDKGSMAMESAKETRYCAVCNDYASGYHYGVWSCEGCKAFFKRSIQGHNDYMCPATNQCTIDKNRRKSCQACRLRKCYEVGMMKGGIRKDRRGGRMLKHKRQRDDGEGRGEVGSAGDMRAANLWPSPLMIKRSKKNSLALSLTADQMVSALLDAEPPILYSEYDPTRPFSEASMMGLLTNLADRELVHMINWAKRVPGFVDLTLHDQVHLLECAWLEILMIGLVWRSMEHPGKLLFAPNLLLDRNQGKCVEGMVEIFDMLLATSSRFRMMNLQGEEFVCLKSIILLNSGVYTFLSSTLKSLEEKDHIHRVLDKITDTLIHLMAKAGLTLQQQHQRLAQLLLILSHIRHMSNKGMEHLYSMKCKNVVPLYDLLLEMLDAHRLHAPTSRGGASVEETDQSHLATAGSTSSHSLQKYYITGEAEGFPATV

[3] = molecular target: T1, Estrogen receptor (Homo sapiens); experiment: Induction of selective estrogen receptor degradation (SERD) in human MCF7 cells assessed as decrease in TFF1 mRNA expression level at 1 to 10 uM incubated for 24 hrs in presence of E2 (estrogen) by RT-qPCR analysis; type: cell-based; settings: dose 1-10 µM
[4] = molecular target: T1, Estrogen receptor (Homo sapiens); experiment: Induction of selective estrogen receptor degradation (SERD) in human T47D cells at 5 uM incubated for 24 hrs by Western blot analysis; type: cell-based
[5] = molecular target: T1, Estrogen receptor (Homo sapiens); experiment: Induction of selective estrogen receptor degradation (SERD) in human MCF7 cells assessed as decrease in TFF1 mRNA expression level at 1 uM incubated for 24 hrs by RT-qPCR analysis; type: cell-based
[6] = molecular target: T1, Estrogen receptor (Homo sapiens); experiment: Induction of selective estrogen receptor degradation (SERD) in human MCF7 cells assessed as decrease in CCND1 mRNA expression level at 1 to 10 uM incubated for 24 hrs in presence of E2 (estrogen) by RT-qPCR analysis; type: cell-based; settings: dose 1-10 µM
[7] = molecular target: T1, Estrogen receptor (Homo sapiens); experiment: Induction of selective estrogen receptor degradation (SERD) in human MCF7 cells assessed as decrease in CCND1 mRNA expression level at 1 uM incubated for 24 hrs by RT-qPCR analysis; type: cell-based
MCF7 [8] = experiment: Inhibition of ERE signaling in human MCF7 cells transfected with 3X ERE TATA luciferase plasmid assessed as estrogen response element transcription at 10 uM incubated for 24 hrs by luminescence based analysis relative to elacestrant; type: functional, cell-based
T47D = experiment: Antiproliferative activity against human T47D cells assessed as reduction in cell viability at 1 to 10 uM incubated for 120 hrs by MTT assay; type: functional, cell-based; settings: dose 1-10 µM
[9] = molecular target: T1, Estrogen receptor (Homo sapiens); experiment: Induction of selective estrogen receptor degradation (SERD) in human MCF7 cells assessed as decrease in GREB1 mRNA expression level incubated for 24 hrs in presence of E2 (estrogen) by RT-qPCR analysis; type: cell-based
[10] = molecular target: T1, Estrogen receptor (Homo sapiens); experiment: Induction of selective estrogen receptor degradation (SERD) in human MCF7 cells assessed as decrease in TFF1 mRNA expression level incubated for 24 hrs in presence of E2 (estrogen) by RT-qPCR analysis; type: cell-based

Row | Structure (SMILES) | Activity (MCF7 [1]) | other results
1 | CCN(C(=O)c1ccc(OCCN2CCCC2)cc1)c1cc(C(F)(F)F)ccc1N1CCc2cc(O)ccc2C1 | inactive | –
2 | CCN(C(=O)c1ccc(OCCN2CCCC2)cc1)c1ccccc1N1CCc2cc(O)ccc2C1 | inactive | –
3 | CCN(Cc1ccc(OCCN2CCCCCC2)cc1)c1cc(C(F)(F)F)ccc1N1CCc2cc(O)ccc2C1 | inactive | –
4 | CCN(Cc1ccc(OCCN2CCCC2)cc1)c1cc(C)ccc1N1CCc2cc(O)ccc2C1 | inactive | –
5 | CCN(Cc1ccc(/C=C/C(=O)O)cc1)c1cc(C(F)(F)F)ccc1N1CCc2cc(O)ccc2C1 | inactive | Activity [2]: Active; Activity [3]: Active; Activity [4]: Active; Activity [5]: Active; Activity [6]: Active; Activity [7]: Active; inhibition (MCF7 [8]): inactive; Activity (T47D): inactive
6 | CCNCCc1ccc(CN(CC)c2cc(OC)ccc2[C@@H]2CCc3cc(O)ccc3C2)cc1 | – | Activity [9]: Active; Activity [10]: Active
7 | CCN(Cc1ccc(OCCN2CCCCCC2)cc1)c1ccccc1N1CCc2cc(O)ccc2C1 | inactive | –
8 | CCN(Cc1ccc(OCCN2CCCCCC2)cc1)c1cc(C)ccc1N1CCc2cc(O)ccc2C1 | inactive | –
9 | CCN(C(=O)c1ccc(OCCN2CCCC2)cc1)c1cc(C)ccc1N1CCc2cc(O)ccc2C1 | inactive | –
10 | CCN(Cc1ccc(/C=C/C(=O)O)cc1)c1ccccc1N1CCc2cc(O)ccc2C1 | inactive | –
11 | CCN(C(=O)c1ccc(OCCN2CCCC2)cc1)c1cc(F)ccc1N1CCc2cc(O)ccc2C1 | inactive | –
12 | CCN(Cc1ccc(/C=C/C(=O)O)cc1)c1cc(F)ccc1N1CCc2cc(O)ccc2C1 | inactive | –
13 | CCN(Cc1ccc(OCCN2CCCCCC2)cc1)c1cc(F)ccc1N1CCc2cc(O)ccc2C1 | inactive | –
14 | CCN(Cc1ccc(OCCN2CCCC2)cc1)c1cc(C(F)(F)F)ccc1N1CCc2cc(O)ccc2C1 | inactive | –
15 | CCN(Cc1ccc(/C=C/C(=O)O)cc1)c1cc(C)ccc1N1CCc2cc(O)ccc2C1 | inactive | –
16 | CCN(Cc1ccc(OCCN2CCCC2)cc1)c1cc(F)ccc1N1CCc2cc(O)ccc2C1 | inactive | –
17 | CCN(Cc1ccc(OCCN2CCCC2)cc1)c1ccccc1N1CCc2cc(O)ccc2C1 | inactive | –
